Source: patent publication US12649750B2, “Macrocyclic compounds, compositions, and methods of using thereof” (Sionna Therapeutics Inc., priority 2022, dated 2026)

Columns and labels:
[1] = biological target: T1, NBD1 (Homo sapiens, UniProt P13569); assay: Aggregation analysis using differential static light scattering (DSLS), thermal stability of NBD1 (ΔTagg); format: binding; details: ΔTagg versus DMSO control, NBD1 0.2 mg/ml
T1 construct: Purified recombinant NBD1 was produced using previously described methods; made in house
In short: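 Stabilisation is measured as the shift in aggregation onset of recombinant NBD1 (0.2 mg/ml, 2 mM ATP, 5 mM MgCl2, pH7.6) exposed to compound. Images are taken every 0.5° C. while heating at 1° C. per minute, and the inflection-point Tagg is corrected by the DMSO mean.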

[2] = biological target: T2, CFTR (Homo sapiens, UniProt P13569, DEL508-508); assay: TECC24 AUC fold over DMSO @10 μM, CFTR-mediated transepithelial chloride transport in CF-HBE cells; format: cell-based; details: test agent AUC divided by DMSO vehicle AUC, primary CF-HBE cells, ΔF508 homozygous donor, 48 hours incubation
T2 construct: Primary human bronchial epithelial cells from a ΔF508 homozygous CF donor; host or cells: primary human bronchial epithelial cells (CF-HBE), ΔF508 homozygous donor
In short: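 Primary ΔF508-homozygous CF bronchial epithelial cells on inserts were incubated 48 h at 36.5 °C with compound in IL-13-containing medium. VT and TEER were then recorded in current-clamp mode (pH 7.4 HEPES bath) with benzamil 10 μM, forskolin 10 μM, then CFTR inhibitor-172 20 μM. The IEQ AUC between forskolin and inhibitor was divided by vehicle AUC.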

T2 sequence (P13569 with tags, fused parts or gaps DEL508-508): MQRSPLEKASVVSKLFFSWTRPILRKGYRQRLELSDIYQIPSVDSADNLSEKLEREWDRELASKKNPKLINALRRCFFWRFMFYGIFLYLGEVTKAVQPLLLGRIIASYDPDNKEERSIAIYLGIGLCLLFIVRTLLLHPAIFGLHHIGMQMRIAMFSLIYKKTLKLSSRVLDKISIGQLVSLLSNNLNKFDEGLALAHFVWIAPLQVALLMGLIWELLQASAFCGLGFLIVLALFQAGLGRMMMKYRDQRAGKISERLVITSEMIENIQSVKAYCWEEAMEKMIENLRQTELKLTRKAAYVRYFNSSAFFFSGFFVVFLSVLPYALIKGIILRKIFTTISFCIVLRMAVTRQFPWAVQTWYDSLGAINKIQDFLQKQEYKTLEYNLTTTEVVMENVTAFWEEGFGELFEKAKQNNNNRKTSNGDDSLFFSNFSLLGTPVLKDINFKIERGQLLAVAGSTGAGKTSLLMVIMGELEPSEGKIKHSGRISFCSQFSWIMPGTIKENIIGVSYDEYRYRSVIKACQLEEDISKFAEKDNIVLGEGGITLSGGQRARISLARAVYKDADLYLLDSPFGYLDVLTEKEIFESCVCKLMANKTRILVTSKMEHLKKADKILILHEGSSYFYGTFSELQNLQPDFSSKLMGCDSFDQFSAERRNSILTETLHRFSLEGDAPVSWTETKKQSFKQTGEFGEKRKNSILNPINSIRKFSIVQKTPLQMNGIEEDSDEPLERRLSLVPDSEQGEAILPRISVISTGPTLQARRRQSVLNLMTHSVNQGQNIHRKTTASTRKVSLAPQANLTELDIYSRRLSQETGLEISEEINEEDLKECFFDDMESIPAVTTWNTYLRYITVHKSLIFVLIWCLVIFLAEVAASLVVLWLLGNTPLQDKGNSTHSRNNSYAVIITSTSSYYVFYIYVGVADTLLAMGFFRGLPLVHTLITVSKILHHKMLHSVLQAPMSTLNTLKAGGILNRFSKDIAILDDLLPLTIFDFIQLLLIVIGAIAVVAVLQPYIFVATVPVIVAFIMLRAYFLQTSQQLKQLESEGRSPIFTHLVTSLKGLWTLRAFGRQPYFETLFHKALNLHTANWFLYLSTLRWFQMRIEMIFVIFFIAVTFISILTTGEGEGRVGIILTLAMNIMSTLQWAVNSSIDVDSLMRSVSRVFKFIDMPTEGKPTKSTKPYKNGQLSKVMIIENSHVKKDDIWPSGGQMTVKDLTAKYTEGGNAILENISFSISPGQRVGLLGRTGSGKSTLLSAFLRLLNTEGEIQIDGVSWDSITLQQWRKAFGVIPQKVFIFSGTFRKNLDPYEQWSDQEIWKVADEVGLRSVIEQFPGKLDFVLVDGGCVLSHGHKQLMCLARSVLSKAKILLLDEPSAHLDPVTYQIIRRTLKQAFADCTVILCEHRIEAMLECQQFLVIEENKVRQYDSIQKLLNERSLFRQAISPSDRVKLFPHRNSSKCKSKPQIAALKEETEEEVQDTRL
T1 sequence (P13569 423-646 limits assumed): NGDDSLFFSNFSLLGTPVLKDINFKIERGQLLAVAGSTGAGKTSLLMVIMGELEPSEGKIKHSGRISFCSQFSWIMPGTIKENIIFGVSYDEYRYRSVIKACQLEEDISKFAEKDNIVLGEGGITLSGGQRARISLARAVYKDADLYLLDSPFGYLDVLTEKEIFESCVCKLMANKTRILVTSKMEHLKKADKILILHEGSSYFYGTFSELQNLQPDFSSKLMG

Structure (SMILES) | DSLS 3D (100 μM ΔT) [1] | TECC (AUC, 10 μM) [2]
COCCOCCOCCOC(=O)[C@@H](C)Cc1cccc(C2(C)CCCC(C)(C)CS(=O)(=O)CCc3c(c(F)cc4[nH]ccc34)Oc3ccc(F)c(c3)-c3nc2nn3C)c1 (single isomer, unassigned) [Compound 165] | B (a value above 5 °C and less than or equal to 10 °C is marked “B”) | C (a value between 20 and 80 is marked “C”)
C/C(=C\c1cccc(C2(C)CCCC(C)(C)CS(=O)(=O)CCc3c(c(F)cc4[nH]ccc34)Cc3ccc(F)c(c3)-c3nc2nn3C)c1)C(=O)O (single isomer, unassigned) [Compound 166A, (E)-3-[3-(22,28-difluoro-3,6,10,10-tetramethyl-12,12-dioxo-12λ6-thia-3,4,19,30-tetrazapentacyclo-[23.3.1.12,5.015,23.016,20]triaconta-1(29),2(30),4,15,17,20,22,25,27-nonaen-6-yl)phenyl]-2-methyl-prop-2-enoic Acid] | C (a value greater than 10 °C and less than or equal to 25 °C is marked “C”) | B (a value between 12-20 is marked “B”)
C/C(=C\c1cccc(C2(C)CCCC(C)(C)CS(=O)(=O)CCc3c(c(F)cc4[nH]ccc34)Cc3ccc(F)c(c3)-c3nc2nn3C)c1)C(=O)O (single isomer, unassigned) [Compound 166B, (E)-3-[3-(22,28-difluoro-3,6,10,10-tetramethyl-12,12-dioxo-12λ6-thia-3,4,19,30-tetrazapentacyclo-[23.3.1.12,5.015,23.016,20]triaconta-1(29),2(30),4,15,17,20,22,25,27-nonaen-6-yl)phenyl]-2-methyl-prop-2-enoic Acid] | A (an ΔTagg value less than or equal to 5 °C is marked “A”) | A (a TECC value less than 12 is marked “A”)
C[C@H](Cc1cccc(C2(C)CCCC(C)(C)CS(=O)(=O)CCc3c(c(F)cc4[nH]ccc34)Cc3ccc(F)c(c3)-c3nc2nn3C)c1)C(=O)O (single isomer, unassigned) [Compound 169A] | C (a value greater than 10 °C and less than or equal to 25 °C is marked “C”) | A (a TECC value less than 12 is marked “A”)
C[C@H](Cc1cccc(C2(C)CCCC(C)(C)CS(=O)(=O)CCc3c(c(F)cc4[nH]ccc34)Cc3ccc(F)c(c3)-c3nc2nn3C)c1)C(=O)O (single isomer, unassigned) [Compound 169B] | A (an ΔTagg value less than or equal to 5 °C is marked “A”) | A (a TECC value less than 12 is marked “A”)
CC1(C)CCCC(C)(c2cccc(CC3(C(=O)O)CC3)c2)c2c[nH]c(n2)-c2cc(ccc2F)Oc2c(F)cc3[nH]ccc3c2CCS(=O)(=O)C1 (single isomer, unassigned) [Compound 171A, 1-[[3-(22,28-difluoro-6,10,10-trimethyl-12,12-dioxo-24-oxa-12λ6-thia-3,19,30-triazapentacyclo[23.3.1.12,5.015,23.016,20]triaconta-1(29),2(30),4,15,17,20,22,25,27-nonaen-6-yl)phenyl]methyl]cyclopropanecarboxylic Acid] | A (an ΔTagg value less than or equal to 5 °C is marked “A”) | A (a TECC value less than 12 is marked “A”)
CC1(C)CCCC(C)(c2cccc(CC3(C(=O)O)CC3)c2)c2c[nH]c(n2)-c2cc(ccc2F)Oc2c(F)cc3[nH]ccc3c2CCS(=O)(=O)C1 (single isomer, unassigned) [Compound 171B, 1-[[3-(22,28-difluoro-6,10,10-trimethyl-12,12-dioxo-24-oxa-12λ6-thia-3,19,30-triazapentacyclo[23.3.1.12,5.015,23.016,20]triaconta-1(29),2(30),4,15,17,20,22,25,27-nonaen-6-yl)phenyl]methyl]cyclopropanecarboxylic Acid] | C (a value greater than 10 °C and less than or equal to 25 °C is marked “C”) | A (a TECC value less than 12 is marked “A”)
C[C@@H](Cc1cccc(C2(C)CCCC(C)(C)CS(=O)(=O)CCc3c(c(F)cc4[nH]ccc34)[S+]([O-])c3ccc(F)c(c3)-c3nc2nn3C)n1)C(=O)O (single isomer, unassigned) [Compound 179A] | B (a value above 5 °C and less than or equal to 10 °C is marked “B”) | A (a TECC value less than 12 is marked “A”)
C[C@@H](Cc1cccc(C2(C)CCCC(C)(C)CS(=O)(=O)CCc3c(c(F)cc4[nH]ccc34)[S+]([O-])c3ccc(F)c(c3)-c3nc2nn3C)n1)C(=O)O (single isomer, unassigned) [Compound 179B] | A (an ΔTagg value less than or equal to 5 °C is marked “A”) | A (a TECC value less than 12 is marked “A”)
C[C@@H](Cc1cccc(C2(C)CCCC(C)(C)CS(=O)(=O)CCc3c(c(F)cc4[nH]ccc34)[S+]([O-])c3ccc(F)c(c3)-c3nc2nn3C)n1)C(=O)O (single isomer, unassigned) [Compound 179C] | C (a value greater than 10 °C and less than or equal to 25 °C is marked “C”) | C (a value between 20 and 80 is marked “C”)
C[C@@H](Cc1cccc(C2(C)CCCC(C)(C)CS(=O)(=O)CCc3c(c(F)cc4[nH]ccc34)[S+]([O-])c3ccc(F)c(c3)-c3nc2nn3C)n1)C(=O)O (single isomer, unassigned) [Compound 179D] | A (an ΔTagg value less than or equal to 5 °C is marked “A”) | A (a TECC value less than 12 is marked “A”)
C[C@@H](Cc1cccc(C2(C)CCCC(C)(C)CS(=O)(=O)CCc3c(c(F)cc4[nH]ccc34)S(=O)(=O)c3ccc(F)c(c3)-c3nc2nn3C)n1)C(=O)O (single isomer, unassigned) [Compound 180A] | C (a value greater than 10 °C and less than or equal to 25 °C is marked “C”) | B (a value between 12-20 is marked “B”)
C[C@@H](Cc1cccc(C2(C)CCCC(C)(C)CS(=O)(=O)CCc3c(c(F)cc4[nH]ccc34)S(=O)(=O)c3ccc(F)c(c3)-c3nc2nn3C)n1)C(=O)O (single isomer, unassigned) [Compound 180B] | A (an ΔTagg value less than or equal to 5 °C is marked “A”) | A (a TECC value less than 12 is marked “A”)
C[C@H](Cc1cccc(C2(C)CCCC(C)(C)CS(=O)(=O)CCc3c(c(F)cc4[nH]ccc34)[S+]([O-])c3ccc(F)c(c3)-c3nc2nn3C)n1)C(=O)O (single isomer, unassigned) [Compound 181A] | B (a value above 5 °C and less than or equal to 10 °C is marked “B”) | A (a TECC value less than 12 is marked “A”)
C[C@H](Cc1cccc(C2(C)CCCC(C)(C)CS(=O)(=O)CCc3c(c(F)cc4[nH]ccc34)[S+]([O-])c3ccc(F)c(c3)-c3nc2nn3C)n1)C(=O)O (single isomer, unassigned) [Compound 181B] | A (an ΔTagg value less than or equal to 5 °C is marked “A”) | A (a TECC value less than 12 is marked “A”)
C[C@H](Cc1cccc(C2(C)CCCC(C)(C)CS(=O)(=O)CCc3c(c(F)cc4[nH]ccc34)[S+]([O-])c3ccc(F)c(c3)-c3nc2nn3C)n1)C(=O)O (single isomer, unassigned) [Compound 181C] | A (an ΔTagg value less than or equal to 5 °C is marked “A”) | A (a TECC value less than 12 is marked “A”)
